Like-named read-outs stand apart in the source and are kept apart here.
What was measured:
Experiment in all cases: Post-emergence efficacy, Method A
Format in all cases: in vivo
[1] = tested on: Digitaria sanguinalis (DIGSA); conditions: evaluated after 13 days; for pest or weed control at 500 g/ha: Digitaria sanguinalis, post-emergence, 312 h
Outline: (§1)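 Plants raised 14 days from seed in standard soil in a glasshouse (24/16 °C day/night, 14 h light, 65% humidity) were sprayed with compound dissolved in acetone plus IF50 solvent/emulsifier (50 g/l solution), diluted with 0.25% or 1% Empicol ESC70 + 1% ammonium sulphate. Damage was scored visually after 13 days (0 = none, 100 = total).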

[2] = tested on: Ipomoea hederacea (IPOHE); conditions: evaluated after 13 days; for pest or weed control at 500 g/ha: Ipomoea hederacea, post-emergence, 312 h
Outline: as §1

[3] = tested on: Echinochloa crus-galli (ECHCG); conditions: evaluated after 13 days; for pest or weed control at 500 g/ha: Echinochloa crus-galli, post-emergence, 312 h
Outline: as §1

Lolium perenne (LOLPE) = conditions: evaluated after 13 days; for pest or weed control at 500 g/ha: Lolium perenne, post-emergence, 312 h
Outline: as §1

Eleusine indica (ELEIN) = conditions: evaluated after 13 days; for pest or weed control at 500 g/ha: Eleusine indica, post-emergence, 312 h
Outline: as §1

[4] = tested on: Chenopodium album (CHEAL); conditions: evaluated after 13 days; for pest or weed control at 500 g/ha: Chenopodium album, post-emergence, 312 h
Outline: as §1

Setaria faberi (SETFA) = conditions: evaluated after 13 days; for pest or weed control at 500 g/ha: Setaria faberi, post-emergence, 312 h
Outline: as §1

[5] = tested on: Euphorbia heterophylla (EPHHL); conditions: evaluated after 13 days; for pest or weed control at 500 g/ha: Euphorbia heterophylla, post-emergence, 312 h
Outline: as §1

[6] = tested on: Amaranthus palmeri (AMAPA); conditions: evaluated after 13 days; for pest or weed control at 500 g/ha: Amaranthus palmeri, post-emergence, 312 h
Outline: as §1

[7] = Application Rate 500 g/Ha, Method A
[8] = Application rate 500 g/Ha, 100=total damage to plant, 0=no damage to plant, read-out: Control of weed species after post-emergence application, DIGSA
[9] = Application rate 500 g/Ha, 100=total damage to plant, 0=no damage to plant, read-out: Control of weed species after post-emergence application, IPOHE
[10] = Application rate 500 g/Ha, 100=total damage to plant, 0=no damage to plant, read-out: Control of weed species after post-emergence application, ECHCG
[11] = Application rate 500 g/Ha, 100=total damage to plant, 0=no damage to plant, read-out: Control of weed species after post-emergence application, LOLPE
[12] = Application rate 500 g/Ha, 100=total damage to plant, 0=no damage to plant, read-out: Control of weed species after post-emergence application, ELEIN
[13] = Application rate 500 g/Ha, 100=total damage to plant, 0=no damage to plant, read-out: Control of weed species after post-emergence application, CHEAL
[14] = Application rate 500 g/Ha, 100=total damage to plant, 0=no damage to plant, read-out: Control of weed species after post-emergence application, SETFA
[15] = Application rate 500 g/Ha, 100=total damage to plant, 0=no damage to plant, read-out: Control of weed species after post-emergence application, EPHHL
[16] = Application rate 500 g/Ha, 100=total damage to plant, 0=no damage to plant, read-out: Control of weed species after post-emergence application, AMAPA
[17] = Application Rate 500 g/Ha, Method A, read-out: Control of weed species after post-emergence application, DIGSA (100=total damage to plant; 0=no damage to plant)
[18] = Application Rate 500 g/Ha, Method A, read-out: Control of weed species after post-emergence application, IPOHE (100=total damage to plant; 0=no damage to plant)
[19] = Application Rate 500 g/Ha, Method A, read-out: Control of weed species after post-emergence application, ECHCG (100=total damage to plant; 0=no damage to plant)
[20] = Application Rate 500 g/Ha, Method A, read-out: Control of weed species after post-emergence application, LOLPE (100=total damage to plant; 0=no damage to plant)
[21] = Application Rate 500 g/Ha, Method A, read-out: Control of weed species after post-emergence application, ELEIN (100=total damage to plant; 0=no damage to plant)
[22] = Application Rate 500 g/Ha, Method A, read-out: Control of weed species after post-emergence application, CHEAL (100=total damage to plant; 0=no damage to plant)
[23] = Application Rate 500 g/Ha, Method A, read-out: Control of weed species after post-emergence application, SETFA (100=total damage to plant; 0=no damage to plant)
[24] = Application Rate 500 g/Ha, Method A, read-out: Control of weed species after post-emergence application, EPHHL (100=total damage to plant; 0=no damage to plant)
[25] = Application Rate 500 g/Ha, Method A, read-out: Control of weed species after post-emergence application, AMAPA (100=total damage to plant; 0=no damage to plant)

SMILES | pest or weed control at 500 g/ha [1, 8] [%] | pest or weed control at 500 g/ha [2, 9] [%] | pest or weed control at 500 g/ha [3, 10] [%] | pest or weed control at 500 g/ha (Lolium perenne (LOLPE); [11]) [%] | pest or weed control at 500 g/ha (Eleusine indica (ELEIN); [12]) [%] | pest or weed control at 500 g/ha [4, 13] [%] | pest or weed control at 500 g/ha (Setaria faberi (SETFA); [14]) [%] | pest or weed control at 500 g/ha [5, 15] [%] | pest or weed control at 500 g/ha [6, 16] [%] | pest or weed control at 500 g/ha [1, 17] [%] | pest or weed control at 500 g/ha [2, 18] [%] | pest or weed control at 500 g/ha [3, 19] [%] | pest or weed control at 500 g/ha (Lolium perenne (LOLPE); [20]) [%] | pest or weed control at 500 g/ha (Eleusine indica (ELEIN); [21]) [%] | pest or weed control at 500 g/ha [4, 22] [%] | pest or weed control at 500 g/ha (Setaria faberi (SETFA); [23]) [%] | pest or weed control at 500 g/ha [5, 24] [%] | pest or weed control at 500 g/ha [6, 25] [%] | also measured
O=P(O)(O)C[n+]1ccc(-c2ccncn2)cn1 [Compound A236] | – | – | – | – | – | – | – | – | – | – | – | – | – | – | – | – | – | – | Control of weed species after post-emergence application, DIGSA (100=total damage to plant; 0=no damage to plant) [1, 7]: 80; Control of weed species after post-emergence application, IPOHE (100=total damage to plant; 0=no damage to plant) [2, 7]: 40; Control of weed species after post-emergence application, ECHCG (100=total damage to plant; 0=no damage to plant) [3, 7]: 50; Control of weed species after post-emergence application, LOLPE (100=total damage to plant; 0=no damage to plant) (Lolium perenne (LOLPE); [7]): 0; Control of weed species after post-emergence application, ELEIN (100=total damage to plant; 0=no damage to plant) (Eleusine indica (ELEIN); [7]): 10; Control of weed species after post-emergence application, CHEAL (100=total damage to plant; 0=no damage to plant) [4, 7]: 20; Control of weed species after post-emergence application, SETFA (100=total damage to plant; 0=no damage to plant) (Setaria faberi (SETFA); [7]): 30; Control of weed species after post-emergence application, EPHHL (100=total damage to plant; 0=no damage to plant) [5, 7]: 30; Control of weed species after post-emergence application, AMAPA (100=total damage to plant; 0=no damage to plant) [6, 7]: 90
O=S(=O)([O-])CC[n+]1ccc(-c2ccnc(C(F)(F)F)n2)cn1 [Compound A108] | 50 | 70 | 40 | 40 | 60 | 80 | 60 | 80 | 40 | – | – | – | – | – | – | – | – | – | –
NC(=O)c1cnc(-c2cc[n+](CCC(=O)O)nc2)cn1 [Compound A202, 3-[4-(5-carbamoylpyrazin-2-yl)pyridazin-1-ium-1-yl]propanoic acid 2,2,2-trifluoroacetate] | – | – | – | – | – | – | – | – | – | 60 | 60 | 80 | 70 | 20 | 90 | 70 | 100 | 100 | –
COc1cc(C)nc(-c2cc[n+](CCC(=O)[O-])nc2)n1 [Compound A105] | 60 | 0 | 40 | 50 | 20 | 20 | 90 | 50 | 90 | – | – | – | – | – | – | – | – | – | –
O=S(=O)([O-])OCCC[n+]1ccc(-c2ncccn2)cn1 [Compound A216] | – | – | – | – | – | – | – | – | – | 100 | 60 | 70 | 70 | 100 | 90 | 90 | 100 | 100 | –
Cc1cc(Cl)cnc1-c1cc[n+](CCS(=O)(=O)[O-])nc1 [Compound A103] | 20 | 30 | 30 | 10 | 30 | 50 | 10 | 50 | 0 | – | – | – | – | – | – | – | – | – | –
COC(=O)c1cnc(-c2cc[n+](CCS(=O)(=O)[O-])nc2)nc1 [Compound A33] | 60 | 40 | 40 | 50 | 80 | 80 | 60 | 60 | 100 | – | – | – | – | – | – | – | – | – | –
CC(C)OC(=O)CC[n+]1ccc(-c2ncccn2)cn1 [Compound A81, isopropyl 3-(4-pyrimidin-2-ylpyridazin-1-ium-1-yl)propanoate 2,2,2-trifluoroacetate] | 100 | 40 | 90 | 40 | 80 | 90 | 90 | 100 | 100 | – | – | – | – | – | – | – | – | – | –
N#Cc1ccnc(-c2cc[n+](CCO)nc2)n1 [Compound A186] | – | – | – | – | – | – | – | – | – | 60 | 30 | 30 | 10 | 50 | 70 | 60 | 30 | 70 | –
O=C(O)CC[n+]1ccc(-c2ncc(Cl)c(=O)[nH]2)cn1 [Compound A161, 3-[4-(5-chloro-6-oxo-1H-pyrimidin-2-yl)pyridazin-1-ium-1-yl]propanoic acid 2,2,2-trifluoroacetate] | – | – | – | – | – | – | – | – | – | 20 | 20 | 20 | 10 | 20 | 70 | 10 | 50 | 30 | –
Nc1cc(-c2cc[n+](CCS(=O)(=O)[O-])nc2)ncn1 [Compound A164] | – | – | – | – | – | – | – | – | – | 30 | 40 | 30 | 40 | 80 | 80 | 50 | 90 | 100 | –
COC(=O)CC[n+]1ccc(-c2ncccn2)cn1 [Compound A54, methyl 3-(4-pyrimidin-2-ylpyridazin-1-ium-1-yl)propanoate 2,2,2-trifluoroacetate] | 100 | 10 | 90 | 70 | 100 | 90 | 100 | 70 | 90 | – | – | – | – | – | – | – | – | – | –
O=S(=O)([O-])CC[n+]1ccc(-c2ccc(Cl)cn2)cn1 [Compound A69] | 50 | 40 | 40 | 50 | 60 | 60 | 40 | 50 | 100 | – | – | – | – | – | – | – | – | – | –
O=S(=O)([O-])CC[n+]1ccc(-c2ncc(C(F)(F)F)cn2)cn1 [Compound A24] | 40 | 70 | 60 | 60 | 40 | 70 | 70 | 80 | 90 | – | – | – | – | – | – | – | – | – | –
